The test system of data set [1] is LP-1 cells (1,6-fucosylation on the antibody). Put plainly: Fucosylation status of LP-1-generated IgG by reducing PLRP-MS. The format is cell-based, human. Particulars: 100 μM, 5 days, in words. From the text: To further define the results of the AOL dot blot, samples of the IgGs produced by cells treated with the following fucose analogs (that gave moderate to strong decreases in the dot blot AOL signal) were isolated and examined by reducing PLRP-MS to verify the fucosylation status using the MW of the heavy chain: alkynyl fucose peracetate; 5-vinylfucose tetraaceate; 5-methylketofucose tetraacetate; 6-bromofucose tetraacetate; 6-fluorofucose tetraacetate; 5-ethylfucose tetraacetate; 5-epoxyfucose tetraacetate; 6′6-difluorofucose tetraacetate; 6-keto-6-ethyl fucose tetraacetate; and 2-fluorofucose peracetate.
40 mL samples of LP-1 cells (250,000 cells/mL) were treated with 100 μM of a fucose analog for 5 days as described above, and the IgGs were purified as described using protein A resin. The yields were estimated by UV spectroscopy assuming an extinction coefficient of 1.4 AU/(mg/mL). Seven of the ten compounds yielded enough IgG to perform the analysis (use of SGD-2067, SGD-1964, and SGD-2020 yielded <10 μg of IgG, likely due to toxicity of the analogs to the cells). The remaining IgGs were reduced with 10 mM DTT at 37° C. for 15 min and were separated on PLRP followed by MS analysis using a QTOF mass spectrometer. The resulting heavy chain peaks were examined and compared to the IgG generated by untreated cells.
The mass spectrometry signals were evaluated by comparing the peak height of the heavy chain versus heavy chain minus fucose and heavy chain minus fucose plus the mass of the fucose analog (which would arise if there was incorporation of the analog into the antibody carbohydrate).

Data set [2] concerns P-selectin ligand on Ramos cells. As to the kind of experiment: Cell surface P-selectin ligand by FACS, P-selectin fusion protein, Ramos. It is filed as cell-based, human. On the procedure: 100 μM of each inhibitor was used under standard culture conditions for approximately 1-2 weeks with regular changes of culture medium including fresh inhibitor. After the incubation period, the cells were analyzed by FACS using four different detection reagents: biotinylated-Lens culimaris agglutinin-A (LCA), anti-Lewis' antibody (anti-SSEA1), an anti-Lewis^y antibody (cBR96), and a Recombinant Human P-Selectin/CD62P/Fc Fusion protein. The procedure involved washing of the cells with FACS buffer (PBS+10% bovine serum albumin+0.02% sodium azide) 3 times followed by incubation with the primary detection reagent for 1 hr at 4° C., followed by 3 washes with FACS buffer and then incubation with the secondary detection reagent for 1 hr at 4° C. The cells were finally washed with FACS buffer 3 times and resuspended in FACS buffer and examined using a BD FACScan instrument. […] The P-selectin fusion protein detects P-selectin ligand present on the surface of cells, an interaction which involves the sialyl Lewis' epitope present of the P-selectin ligand.
For orientation: Flow cytometry measures light scatter and fluorescence of single cells or particles in a stream.

The test system of data set [3] is LS174T, PC-3, HL-60, Ramos, and Caki-1 cell lines. Put plainly: Cell surface fucosylation of human-derived cell lines cultured with fucose analog, FACS (Example 7, Study 1). It is filed as cell-based. Particulars: 100 μM, two weeks. Here is the method: Human-derived cell lines were evaluated for their susceptibility to the fucose analog 2-fluorofucose in vitro. The cells lines were: LS174T colon adenocarcinoma, […], HL-60 acute mylogenous leukemia, Ramos Burkitt lymphoma, and Caki-1 renal cell carcinoma. The cell lines were cultured in the presence of 100 μM 2-fluorofucose (SGD-2083) in growth media, 100 μM alkynylfucose (SGD-1887) in growth media, or control growth media (without a fucose analog) for two weeks. The growth media were MEM Eagle with 10% FBS (LS174T), 50:50 F12 and RPMI with 10% FBS (PC-3), RPMI with 10% FBS (HL-60), IMDM with 10% FBS (Ramos), and McCoy with 10% FBS ([…]). The cells were evaluated for cell surface fucosylation by FACS using antibody cBR96 to detect LewisY, antibody SSEA-1 to detect LewisX, P-selectin ligand to detect P-selectin, and AOL lectin to detect the general level of fucosylation.

The subject of data set [4] is A20 murine lymphoma cells. Put plainly: Tumor vaccine model, killed A20 immunization and live A20 challenge. The format is in vivo, Female Balb/c mice. Particulars: 50 mM in drinking water days -14 through +21. Here is the method: Female Balb/c mice were immunized by subcutaneous implantation of 1 million A20 murine lymphoma cells (killed by irradiation) on day −21 and day −7. Another group of mice were not given any immunization. On day 0, all mice were inoculated iv with 1.5 or 5 million live A20 cells. On days −14 through +21, mice were provided with 50 mM 2-fluorofucose (SGD-2083) in their drinking water or given regular drinking water. The 8 treatment groups were as follows: • 1. No immunization, 1.5 million live A20 cells, regular drinking water • 2. No immunization, 5 million live A20 cells, regular drinking water • 3. No immunization, 1.5 million live A20 cells, 50 mM SGD-2083 in drinking water • 4. No immunization, 5 million live A20 cells, 50 mM SGD-2083 in drinking water • 5. Immunized, 1.5 million live A20 cells, regular drinking water • 6. Immunized, 5 million live A20 cells, regular drinking water • 7. Immunized, 1.5 million live A20 cells, 50 mM SGD-2083 in drinking water • 8. Immunized, 5 million live A20 cells, 50 mM SGD-2083 in drinking water Results

The test system of data set [5] is Ramos Burkitt lymphoma. As to the kind of experiment: Xenograft of pre-treated Ramos cells (Example 7, Study 2). It is filed as in vivo, female SCID mice. Particulars: 20 mM in drinking water. On the procedure:
(§1) To further evaluate the activity of these fucose analogs, further studies were performed in vivo using tumor cells that had been pre-treated by culturing in the presence of a fucose analog, or using untreated tumor cells. Tumor cells were implanted into 10 mice per group as follows. For the LS174T, PC-3, and Caki-1 cell lines, 5×10^5 cells in 25% Matrigel were implanted subcutaneously into female nude mice. For HL-60 and Ramos cell lines, 5×10^6 cells were implanted subcutaneously into female SCID mice. For mice implanted with untreated tumor cells, mice were provided regular drinking water. For mice implanted with tumor cells pre-treated with 2-fluorofucose (SGD-2083), the mice were provided drinking water supplemented with 20 mM 2-fluorofucose (SGD-2083). For mice implanted with tumor cells pre-treated with alkylnyl fucose (SGD-1887), the mice were provided with regular drinking water.
(§2) After 3 weeks of receiving 2-fluorofucose-containing drinking water, mice were returned to regular drinking water, except for mice with Caki-1 tumors. The latter mice were returned to regular drinking water for one week. After the week of receiving regular water, mice were randomized to two groups of 5 each to receive drinking water supplemented with 20 mM 2-fluorofucose or regular drinking water. Mice were sacrificed when tumors reached about 1000 mm^3.

Data set [6] relates to LS174T colon adenocarcinoma. As to the kind of experiment: Xenograft of pre-treated LS174T cells (Example 7, Study 2). The format is in vivo, female nude mice. Particulars: 20 mM in drinking water. On the procedure: as §1, §2
The test system of data set [7] is Caki-1 renal cell carcinoma. Put plainly: Xenograft of pre-treated Caki-1 cells (Example 7, Study 2). It is filed as in vivo, female nude mice. To be noted: 20 mM in drinking water, not in first treatment period, observed in second. Here is the method:
as §1, §2

“Also recorded” adds a separate entry of the source.

Take `C#CC(OC(C)=O)[C@@H](OC(C)=O)[C@@H](OC(C)=O)[C@@H](C=O)OC(C)=O` (some centres unmarked) [SGD-1890, 5-ethynylarabinose tetraacetate]: in data set [1], the “PLRP/MS (inhibition or incorporation)” value is given as “complete inhibition; also recorded: Full inhibitor”.
With `C[C@H](O)[C@@H](O)[C@@H](O)[C@H](F)C=O` [SGD-2083, 2-fluoro-2-deoxy fucose], in data set [2], the “signal for P-selectin ligand (increase upon treatment)” value is “not observed”. In addition, the “inhibition of protein fucosylation, compared with alkynyl fucose (SGD-1887)” value in data set [3] is listed as “generally a better inhibitor”. Further, the “survival after live A20 challenge” value in data set [4] (immunized) was “still alive at data collection”; in data set [4] (no immunization, versus regular drinking water) it was “survived a few days longer”. Also, the tumor growth result in data set [5] is “No change in tumor growth”; in data set [6], “tumor growth inhibition in vivo was seen”; in data set [7] it was “tumor growth inhibition in vivo was seen”.

These data come from patent publication US9504702B2, “Methods of inhibition of protein fucosylation in vivo using fucose analogs” (Seattle Genetics, Inc., priority 2010, dated 2016).
